Test results from patent publication US5527697A, “7-amino-3-methoxymethyl-3-cephem-4-carboxylic ester hydrolase, process for its preparation, and its use” (Hoechst Aktiengesellschaft, priority 1992, dated 1996).
Structures can show the parent of a compound that is named as a salt.

Key:
[1] = system: esterase according to the invention (MACA-ester hydrolase); test: substrate specificity of the esterase according to the invention; type: biochemical
Text: Following partial purification, the enzyme can be bound without difficulty, for example to the enzyme carrier VA-Epoxy-Biosynth®. The activity is normally determined by conversion of MACA-ester to MACA. HPLC or TLC is then employed for the quantitative evaluation of the amount of MACA that is formed.
The following table contains further information concerning the substrate specificity of the esterase according to the invention: […]

[2] = system: immobilized enzyme (MACA-ester hydrolase); test: cleavage of MACA ester (R) with immobilized esterase; type: biochemical, Nocardia sp. ATCC 53492; conditions: within 6-8 hours; pH 6.8, 30° C.; 5 g substrate, 100 g moist immobilized enzyme
Description: 2.5 g of R-ester hydrochloride are dissolved in 800 ml of 50 mM potassium phosphate solution, pH=6.8. 100 g of moist, immobilized enzyme are then added with stirring. The pH is kept at 6.8 and the temperature at 30° C. Further 1.25 g amounts of substrate are added after 2.5 h and after 41/4 h. In all, the mixture contains 5 g of MACA ester (R). The cleavage proceeds within the space of 6-8 hours to 95% conversion according to HPLC. The cleavage solution is separated from the enzyme and lyophilized. About 10 g of a white solid are obtained.

[3] = substrate concentration 100 mM, relative to MACA ester pro J = 100
[4] = substrate concentration 2.5 mM, MACA ester pro J = 100
[5] = substrate concentration 1.59 mM, HEPES, pH 6.95
[6] = substrate concentration 2.5 mM, phosphate buffer, pH 6.8

Compound	Activity U/mg ([1]; substrate concentration 100 mM)	Activity U/ml ([1]; substrate concentration 100 mM)	Activity % [1, 3]	further results
CCOC(=O)C(C)Cl (stereo not shown) [Ethyl 2-chloro-propionate, ethyl 2-chloropropionate]	75 U/mg	30 U/ml	85.2%	
CC(=O)OCC(COC(C)=O)OC(C)=O [Triacetin]	92.75 U/mg	37.1 U/ml	105.4%	
CCOC(=O)C(C)N (racemic) [D,L-alanine ethyl ester]	40 U/mg	16 U/ml	45.5%	
CCCC(=O)OCC(COC(=O)CCC)OC(=O)CCC [Tributyrin]	93.75 U/mg	37.5 U/ml	106.5%	
CCOC(=O)C(C)(C)C [Ethyl pivalate]	42.75 U/mg	17.1 U/ml	48.6%	
CCOC(=O)CC [Ethyl propionate]	50 U/mg	20 U/ml	56.8%	
COCC1=C(C(=O)O[C@H](C)OC(=O)C(C)(C)C)N2C(=O)C(N)[C@@H]2SC1 (stereo partly drawn) [MACA ester pro K, (1R,S)-1-(2,2-dimethylpropionyloxy)-ethyl 7-amino-3-methoxymethyl-3-cephem-4-carboxylate]				Activity U/mg ([1]; substrate concentration 2.5 mM): 87.75 U/mg; Activity U/ml ([1]; substrate concentration 2.5 mM): 35.1 U/ml; Activity % [1, 4]: 99.7%
CC(OC(=O)C(C)(C)C)OC(=O)C(C)(C)C				Activity U/mg ([1]; substrate concentration 50 mM): 3.5 U/mg; Activity U/ml ([1]; substrate concentration 50 mM): 1.4 U/ml; Activity % ([1]; substrate concentration 50 mM, relative to MACA ester pro J = 100): 4%
COCC1=C(C(=O)O[C@H](C)OC(=O)C(C)(C)C)N2C(=O)[C@@H](N)[C@H]2SC1 [R-ester hydrochloride]				conversion according to HPLC [2]: 95%
CC(=O)Oc1ccc([N+](=O)[O-])cc1 [p-Nitrophenyl acetate, p-nitrophenyl acetate]				Activity U/mg [1, 5]: 76.0 U/mg; Activity U/ml [1, 5]: 30.4 U/ml; Activity % ([1]; substrate concentration 1.59 mM, HEPES, pH 6.95, relative to MACA ester pro J = 100): 86.4%; Activity U/mg [1, 6]: 108.75 U/mg; Activity U/ml [1, 6]: 43.5 U/ml; Activity % ([1]; substrate concentration 2.5 mM, phosphate buffer, pH 6.8, relative to MACA ester pro J = 100): 123.6%
COCC1=C(C(=O)O[C@H](C)OC(=O)C(C)(C)C)N2C(=O)C(N)[C@@H]2SC1 (stereo partly drawn) [MACA ester pro J, (1R,S)-1-(2,2-dimethylpropionyloxy)-ethyl 7-amino-3-methoxymethyl-3-cephem-4-carboxylate]				Activity U/mg ([1]; substrate concentration 2.5 mM): 87.75 U/mg; Activity U/ml ([1]; substrate concentration 2.5 mM): 35.2 U/ml; Activity % [1, 4]: 100%
